Five compounds from patent US20180084779A1, “PLANT DISEASE CONTROL AGENT AND USE THEREOF” (NIHON NOHYAKU CO., LTD., priority 2015, published 2018) can be followed below.

Assay [1] relates to Septoria tritici, KUK-1-21 Strain. The assay is described as follows: Test for wheat leaf blotch, fluoroimide and/or DMI agent sprayed on wheat pots, lesion area index 17 days after inoculation. Format: in vivo. The conditions noted are these: wheat, 17 days after inoculation. As to the method: (§1) Test for Wheat Leaf Blotch (Septoria tritici, KUK-1-21 Strain):
(§2) Agrochemical liquids containing a predetermined concentration of fluoroimide and/or a predetermined concentration of each DMI agent were applied to wheat in a predetermined amount with a spray gun. After air drying, a suspension of fungus spore of Septoria tritici adjusted to 1.0×10^7 spores/ml was inoculated by spraying. After that, the wheat pots were kept in a growth chamber under a light condition of at 15° C. 100% RH to encourage the development of the disease. Seventeen days after the inoculation, the lesion area index (0-10) was determined for the evaluation of the control effect.
(§3) Control effect (%)=[(Disease index of no treatment area−Disease index of treatment area)/Disease index of no treatment area]×100 [Formula 1]
(§4) The expected effect (expected value E) by using an active ingredient in combination with each of other active ingredients in the above tests was determined by the following Colby formula (see COLBY, S. R., Weeds 15: 20-22 (1967)).
(§5) E(Expected effect)=(X+Y)−(X×Y/100) [Formula 2]
X=controlling effect of fungicide A alone
Y=controlling effect of fungicide B alone

The test system is the same in assay [2]. The experiment in a line: Test for wheat leaf blotch, fluoroimide and/or SDHI agent sprayed on wheat pots, lesion area index 21 days after inoculation. The conditions noted are these: for Controlling Effect as single agent: wheat, 21 days after inoculation; for Control effect Combination with fluoroimide / Control effect SDHI alone: 21 days; for Control effect SDHI alone: fluoroimide 0 ppm. Format: in vivo. As to the method:
as §3, §4, §5, §1
as §2, with “SDHI” for “DMI”, “Twenty-one” for “Seventeen”, “set and” for “determined for”, “controlling effects and expected values are examined in” for “evaluation of”, “same manner as Example 1.” for “control effect.”

Where [3] appears, read: SDHI agent 1 ppm + fluoroimide 50 ppm.
The mark [4] stands for this setting: SDHI agent 1 ppm + fluoroimide 100 ppm.
The mark [5] stands for this setting: SDHI agent 3 ppm + fluoroimide 50 ppm.
The mark [6] stands for this setting: SDHI agent 3 ppm + fluoroimide 100 ppm.
Setting [7] is: SDHI agent 10 ppm + fluoroimide 50 ppm.
Setting [8] is: SDHI agent 10 ppm + fluoroimide 100 ppm.

With `O=C1C(Cl)=C(Cl)C(=O)N1c1ccc(F)cc1` [fluoroimide], the “Controlling Effect as single agent” value in assay [1] (fluoroimide alone 50 ppm) was 25%; in assay [1] (fluoroimide alone 100 ppm) it was 50%; in assay [2] (fluoroimide alone 50 ppm) it was 5%; in assay [2] (fluoroimide alone 100 ppm), 25%.
As to `Cn1cc(C(=O)Nc2ccc(F)cc2-c2ccc(Cl)c(Cl)c2)c(C(F)F)n1` [bixafen], the “Control effect Expected value (Colby)” value in assay [2] (setting [3]) was determined as 76%; in assay [2] (setting [4]), 81%; in assay [2] (setting [5]), 86%; in assay [2] (setting [6]) it was 89%; in assay [2] (setting [7]), 100%; in assay [2] (setting [8]), 100%. Besides, the “Control effect Combination with fluoroimide” value (shortened to “Control effect Combination”) in assay [2] (setting [3]) is recorded as 95%; in assay [2] (setting [4]), 85%; in assay [2] (setting [5]), 100%; in assay [2] (setting [6]), 90%; in assay [2] (setting [7]) it was 100%; in assay [2] (setting [8]), 100%. Besides, the results for the “Control effect SDHI alone” value in assay [2] (SDHI agent 1 ppm), in assay [2] (SDHI agent 3 ppm) and in assay [2] (SDHI agent 10 ppm) were 75%, 85% and 100%, respectively.
For `O=C(Nc1ccccc1-c1ccc(Cl)cc1)c1cccnc1Cl` [boscalid], the “Control effect Expected value (Colby)” value in assay [2] (setting [3]) stood at 10%; in assay [2] (setting [4]) it was 29%; in assay [2] (setting [5]), 19%; in assay [2] (setting [6]), 36%; in assay [2] (setting [7]), 62%; in assay [2] (setting [8]) it was 70%. The “Control effect Combination” value in assay [2] (setting [3]) was determined as 15%; in assay [2] (setting [4]) it was 0%; in assay [2] (setting [5]) it was 65%; in assay [2] (setting [6]) it was 80%; in assay [2] (setting [7]) it was 100%; in assay [2] (setting [8]), 95%. In addition, the “Control effect SDHI alone” value in assay [2] (SDHI agent 1 ppm) worked out at 5%; in assay [2] (SDHI agent 3 ppm), 15%; in assay [2] (SDHI agent 10 ppm), 60%.
Take `Cn1cc(C(=O)Nc2ccccc2-c2cc(F)c(F)c(F)c2)c(C(F)F)n1` [fluxapyroxad]: the “Control effect Expected value (Colby)” value came to 5% in assay [2] (setting [3]); 25% in assay [2] (setting [4]); 95% in assay [2] (setting [5]); 96% in assay [2] (setting [6]); 100% in assay [2] (setting [7]); 100% in assay [2] (setting [8]). In addition, the “Control effect Combination” value in assay [2] (setting [3]) is reported as 15%; in assay [2] (setting [4]) it was 50%; in assay [2] (setting [5]), 90%; in assay [2] (setting [6]), 100%; in assay [2] (setting [7]), 100%; in assay [2] (setting [8]) it was 100%. Further, the “Control effect SDHI alone” value in assay [2] (SDHI agent 1 ppm) was determined as 0%; in assay [2] (SDHI agent 3 ppm), 95%; in assay [2] (SDHI agent 10 ppm), 100%.
`CC(C)C1C2CCC1c1c(NC(=O)c3cn(C)nc3C(F)F)cccc12` (stereo not shown) [isopyrazam]: the “Control effect Expected value (Colby)” value in assay [2] (setting [3]) turned out to be 19%; in assay [2] (setting [4]), 36%; in assay [2] (setting [5]), 76%; in assay [2] (setting [6]), 81%; in assay [2] (setting [7]), 100%; in assay [2] (setting [8]), 100%. Moreover, the “Control effect Combination” value in assay [2] (setting [3]) is 60%; in assay [2] (setting [4]), 20%; in assay [2] (setting [5]), 85%; in assay [2] (setting [6]) it was 85%; in assay [2] (setting [7]), 100%; in assay [2] (setting [8]), 100%. For the same compound, the entries for the “Control effect SDHI alone” value in assay [2] (SDHI agent 1 ppm), in assay [2] (SDHI agent 3 ppm) and in assay [2] (SDHI agent 10 ppm) were 15%, 75% and 100%, respectively.
